Key:
Assay type in all cases: biochemical
[1] = system: creatine kinase (CK); test: CK functional stability of the reagent with Na2SO3 (example 1); settings: for CK functional stability, 35° C. compared to 2 to 8° C.: 14 days storage
Description: (§1) For the determination 250 μl R1 is mixed with 10 μl sample, incubated for 5 minutes, the reaction is started with 50 μl R2 and the CK activity is measured after incubating for a further 1 minute. The CK or G6P-DH enzyme activity was determined after storage at 2 to 8° C. or 35° C. for various periods (table 1-3,FIGS. 1-3).

[2] = system: G6P-DH; test: G6P-DH stability in the reagent with Na2SO3, 14 days storage (example 1); settings: for G6P-DH stability, 35° C. compared to 2 to 8° C.: 14 days storage
Description: as §1

[3] = system: creatine kinase (CK); test: Influence of the amount of sulfite on the CK activity (example 2)
Description: as §1
The reagent composition and the test procedure are essentially analogous to example 1. Only the amount of sodium sulfite (0 to 20 mmol/l) added to reagent 1 was varied.

[4] = system: creatine kinase (CK); test: Regeneration of the CK in R1 by adding sulfite in R2 (example 4); settings: 10 mmol/l sulfite in R2
Description: as §1
The mixing of R1, R2 and the respective sample and the subsequent determination were carried out according to example 1.

[5] = system: G6P-DH; test: Long-term stability G6P-DH, 10 mmol/l DTT compared to 1 mmol/l Na2SO3; settings: 1 mmol/l sulfite, example 1
Description: as §1
The reagent R was combined with the sample to be measured as described in example 1 and the corresponding enzyme activities were determined (table 5,FIG. 5).

[6] = 1 mmol/l Na2SO3 in reagent 1, sample 1
[7] = 1 mmol/l Na2SO3 in reagent 1, sample 2
[8] = 2 mmol/l Na2SO3 in reagent 1, sample 1
[9] = 2 mmol/l Na2SO3 in reagent 1, sample 2
[10] = 3 mmol/l Na2SO3 in reagent 1, sample 1
[11] = 3 mmol/l Na2SO3 in reagent 1, sample 2
[12] = 4 mmol/l Na2SO3 in reagent 1, sample 1
[13] = 4 mmol/l Na2SO3 in reagent 1, sample 2

## O=S([O-])[O-].[Na+].[Na+] [Na2SO3, sodium sulfite]
[1]; [6]
  CK activity, 14 days storage at 2 to 8° C.: 278 U/l
  CK activity, 14 days storage at 35° C.: 267 U/l
  CK functional stability, 35° C. compared to 2 to 8° C.: 96.0%
[1]; [7]
  CK activity, 14 days storage at 2 to 8° C.: 540 U/l
  CK activity, 14 days storage at 35° C.: 512 U/l
  CK functional stability, 35° C. compared to 2 to 8° C.: 94.8%
[1]; [8]
  CK activity, 14 days storage at 2 to 8° C.: 274 U/l
  CK activity, 14 days storage at 35° C.: 265 U/l
  CK functional stability, 35° C. compared to 2 to 8° C.: 97.0%
[1]; [9]
  CK activity, 14 days storage at 2 to 8° C.: 530 U/l
  CK activity, 14 days storage at 35° C.: 510 U/l
  CK functional stability, 35° C. compared to 2 to 8° C.: 96.2%
[1]; [10]
  CK activity, 14 days storage at 2 to 8° C.: 271 U/l
  CK activity, 14 days storage at 35° C.: 267 U/l
  CK functional stability, 35° C. compared to 2 to 8° C.: 98.5%
[1]; [11]
  CK activity, 14 days storage at 2 to 8° C.: 523 U/l
  CK activity, 14 days storage at 35° C.: 503 U/l
  CK functional stability, 35° C. compared to 2 to 8° C.: 96.2%
[1]; [12]
  CK activity, 14 days storage at 2 to 8° C.: 260 U/l
  CK activity, 14 days storage at 35° C.: 272 U/l
  CK functional stability, 35° C. compared to 2 to 8° C.: 104.4%
[1]; [13]
  CK activity, 14 days storage at 2 to 8° C.: 505 U/l
  CK activity, 14 days storage at 35° C.: 521 U/l
  CK functional stability, 35° C. compared to 2 to 8° C.: 103.1%
[2]; 1 mmol/l Na2SO3 in reagent 1
  G6P-DH activity, 14 days storage at 2 to 8° C.: 3.95 U/l
  G6P-DH activity, 14 days storage at 35° C.: 1.50 U/l
  G6P-DH stability, 35° C. compared to 2 to 8° C.: 38.1%
[2]; 2 mmol/l Na2SO3 in reagent 1
  G6P-DH activity, 14 days storage at 2 to 8° C.: 3.92 U/l
  G6P-DH activity, 14 days storage at 35° C.: 1.57 U/l
  G6P-DH stability, 35° C. compared to 2 to 8° C.: 39.9%
[2]; 3 mmol/l Na2SO3 in reagent 1
  G6P-DH activity, 14 days storage at 2 to 8° C.: 3.98 U/l
  G6P-DH activity, 14 days storage at 35° C.: 1.69 U/l
  G6P-DH stability, 35° C. compared to 2 to 8° C.: 42.5%
[2]; 4 mmol/l Na2SO3 in reagent 1
  G6P-DH activity, 14 days storage at 2 to 8° C.: 4.06 U/l
  G6P-DH activity, 14 days storage at 35° C.: 1.76 U/l
  G6P-DH stability, 35° C. compared to 2 to 8° C.: 43.5%
[3]; sulfite 1 mmol/l test
  CK activity, Sample 1: 242 U/l
  CK activity, Sample 2: 530 U/l
  CK function relative to 0 mmol/l sulfite, Sample 1: 102.9%
  CK function relative to 0 mmol/l sulfite, Sample 2: 100.2%
[3]; sulfite 2 mmol/l test
  CK activity, Sample 1: 239 U/l
  CK activity, Sample 2: 520 U/l
  CK function relative to 0 mmol/l sulfite, Sample 1: 101.4%
  CK function relative to 0 mmol/l sulfite, Sample 2: 98.4%
[3]; sulfite 3 mmol/l test
  CK activity, Sample 1: 236 U/l
  CK activity, Sample 2: 514 U/l
  CK function relative to 0 mmol/l sulfite, Sample 1: 100.3%
  CK function relative to 0 mmol/l sulfite, Sample 2: 97.2%
[3]; sulfite 4 mmol/l test
  CK activity, Sample 1: 227 U/l
  CK activity, Sample 2: 496 U/l
  CK function relative to 0 mmol/l sulfite, Sample 1: 96.4%
  CK function relative to 0 mmol/l sulfite, Sample 2: 93.8%
[3]; sulfite 5 mmol/l test
  CK activity, Sample 1: 215 U/l
  CK activity, Sample 2: 504 U/l
  CK function relative to 0 mmol/l sulfite, Sample 1: 91.3%
  CK function relative to 0 mmol/l sulfite, Sample 2: 95.3%
[3]; sulfite 10 mmol/l test
  CK activity, Sample 1: 196 U/l
  CK activity, Sample 2: 464 U/l
  CK function relative to 0 mmol/l sulfite, Sample 1: 83.2%
  CK function relative to 0 mmol/l sulfite, Sample 2: 87.7%
[3]; sulfite 20 mmol/l test
  CK activity, Sample 1: 182 U/l
  CK activity, Sample 2: 441 U/l
  CK function relative to 0 mmol/l sulfite, Sample 1: 77.3%
  CK function relative to 0 mmol/l sulfite, Sample 2: 83.3%
[4]; R1 stress 14 days 2-8° C.
  CK activity, Sample 1: 238 U/l
  CK activity, Sample 2: 509 U/l
  recovery sample 1 (vs. fresh reagent): 100.8%
  recovery sample 2 (vs. fresh reagent): 99.5%
[4]; R1 stress 14 days 35° C.
  CK activity, Sample 1: 227 U/l
  CK activity, Sample 2: 486 U/l
  recovery sample 1 (vs. fresh reagent): 96.2%
  recovery sample 2 (vs. fresh reagent): 94.7%
[5]; 0 days at 2 to 8° C.
  G6P-DH activity: 3.68 U/ml
  G6P-DH activity relative to day 0: 100.0%
[5]; 55 days at 2 to 8° C.
  G6P-DH activity: 3.65 U/ml
  G6P-DH activity relative to day 0: 99.2%
[5]; 85 days at 2 to 8° C.
  G6P-DH activity: 3.77 U/ml
  G6P-DH activity relative to day 0: 102.3%
[5]; 114 days at 2 to 8° C.
  G6P-DH activity: 3.57 U/ml
  G6P-DH activity relative to day 0: 96.9%
[5]; 136 days at 2 to 8° C.
  G6P-DH activity: 3.35 U/ml
  G6P-DH activity relative to day 0: 91.0%
[5]; 192 days at 2 to 8° C.
  G6P-DH activity: 3.15 U/ml
  G6P-DH activity relative to day 0: 85.5%
[5]; 220 days at 2 to 8° C.
  G6P-DH activity: 3.12 U/ml
  G6P-DH activity relative to day 0: 84.7%
[5]; 308 days at 2 to 8° C.
  G6P-DH activity: 2.98 U/ml
  G6P-DH activity relative to day 0: 80.9%
[5]; 345 days at 2 to 8° C.
  G6P-DH activity: 2.65 U/ml
  G6P-DH activity relative to day 0: 72.0%
[5]; 451 days at 2 to 8° C.
  G6P-DH activity: 2.12 U/ml
  G6P-DH activity relative to day 0: 57.6%

Reference: patent US6413733B1, “Stabilized reagent and method for determining creatine kinase” (Roche Diagnostics GmbH, priority 1997, dated 2002)
